What follows are compounds tested against T1, mouse SSAO protein (Mus musculus, UniProt O70423) (assay: In vitro inhibitory activity on SSAO/VAP-1 (MAO-Glo assay), mouse).
T1 construct: Eli Lilly (provided, not a catalogue product)
T1 sequence (O70423 1-765): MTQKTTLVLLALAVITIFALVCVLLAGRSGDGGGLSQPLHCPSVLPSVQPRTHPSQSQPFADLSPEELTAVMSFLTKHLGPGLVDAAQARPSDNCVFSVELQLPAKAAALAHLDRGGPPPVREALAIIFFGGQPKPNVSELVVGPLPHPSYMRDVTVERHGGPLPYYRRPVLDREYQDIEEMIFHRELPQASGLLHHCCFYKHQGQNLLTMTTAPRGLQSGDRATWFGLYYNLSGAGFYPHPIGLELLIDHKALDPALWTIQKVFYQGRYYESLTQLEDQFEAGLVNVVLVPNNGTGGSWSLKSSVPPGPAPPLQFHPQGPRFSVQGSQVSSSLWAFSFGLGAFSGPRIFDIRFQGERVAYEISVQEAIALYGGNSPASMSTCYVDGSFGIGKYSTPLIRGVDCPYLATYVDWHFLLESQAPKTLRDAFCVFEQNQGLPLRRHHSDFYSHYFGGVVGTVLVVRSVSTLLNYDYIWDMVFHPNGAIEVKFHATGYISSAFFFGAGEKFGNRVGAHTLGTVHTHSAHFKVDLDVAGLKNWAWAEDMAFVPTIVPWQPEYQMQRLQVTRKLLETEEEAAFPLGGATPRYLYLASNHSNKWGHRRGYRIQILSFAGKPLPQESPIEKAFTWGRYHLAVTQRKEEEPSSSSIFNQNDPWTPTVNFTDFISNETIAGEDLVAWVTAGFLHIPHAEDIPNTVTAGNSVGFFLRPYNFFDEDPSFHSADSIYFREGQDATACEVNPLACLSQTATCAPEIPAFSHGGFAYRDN
Assay type: biochemical
Procedure: This assay was used to evaluate the in vitro inhibitory activity of the compounds on SSAO/VAP-1 of different species. Recombinant human SSAO protein, mouse SSAO protein or rat SSAO protein (provided by Eli Lilly) were used. The enzyme activity detection kit, MAO-Glo Assay kit (V1402) was purchased from Promega. Enzyme reaction buffer (50 mM HEPES, 120 mM NaCl, 5 mM KCl, 2 mM CaCl2, 1.4 mM MgCl2, 0.001% Tween-20, pH7.4) was prepared. The test compound was dissolved in DMSO and diluted by 3-fold concentration in gradient. The final concentration of test compound in a 10 μL reaction system was 1 μM to 0.05 nM when SSAO was detected. The content of DMSO in the detection reaction was 1%. After the solution of test compound in DMSO was diluted in the enzyme reaction buffer at a volume ratio of 1:25, 2.5 μL of which was added to each well of detection plate, two replicates for each concentration. 5 μL of SSAO protein diluted in the enzyme reaction buffer was added to each well, the final concentration of which was 10 nM to 80 nM in 10 μL reaction system. The mixture was incubated at room temperature for 10 minutes. 2.5 μL of the reaction substrate diluted in the enzyme reaction buffer was added to each well, the final concentration of which was 10 μM in 10 μL reaction system. After the mixture was reacted at room temperature for 120 minutes, 10 μL of detection reagent was added to each well. The reaction solution was incubated for 20 minutes at room temperature, and the plate was read with Synergy Neo 2 for detection. The value was converted into inhibition rate by the following formula: Inhibition rate=(Signalpositive−Signaltest)/(Signalpositive−Signalnegative)×100%
Signalpositive was positive control without test compound. Signalnegative was negative control without test compound and SSAO enzyme, and Signaltest was detection value of each compound at different concentrations. IC50 value was calculated by using 4 parameter curve fitting.
With `COC1CC2CC1CN2c1ncc(OC/C(=C/F)CN)cn1` (stereo not drawn) [Example 2] the IC50 was less than 100 nM. `NC/C(=C\F)COc1cnc(N2CCN(C3COC3)CC2)nc1` [Example 4, (E)-3-fluoro-2-(((2-(4-(oxbutan-3-yl)piperazin-1-yl)pyrimidin-5-yl)oxo)methyl)prop-2-en-1-amine] showed an IC50 of less than 100 nM. In the case of `COC1CC2CCC(C1)N2c1ncc(OC/C(=C/F)CN)cn1` (stereo not drawn) [Example 12], the IC50 is reported as less than 100 nM.

— patent publication US12258336B2, “Preparation of seimicarbazide-sensitive amine oxidase inhibitor and use thereof” (SHANGHAI ENNOVABIO PHARMACEUTICALS CO., LTD., priority 2018, dated 2025)
